Earlier results as cited in publication PMC8226449, “In Vitro Evaluation of the Squaramide-Conjugated Fibroblast Activation Protein Inhibitor-Based Agents AAZTA^5.SA.FAPi and DOTA.SA.FAPi” (Molecules, 2021).

Parameters: method as in PMID 32332144
Details: reported in the literature; cited from earlier work

N#C[C@@H]1CC(F)(F)CN1C(=O)CNC(=O)c1ccnc2ccc(OCCCN3CCN(C(=O)CN4CCN(CC(=O)O)CCN(CC(=O)O)CCN(CC(=O)O)CC4)CC3)cc12 (68Ga complex, metal not drawn) [FAPI-04]
logD: −2.4 ± 0.28
